Data taken from patent publication US20060252714A1, “Pharmaceutical compositions and methods for treating multidrug resistant cancer” (priority 2003, published 2006).
Counter-ions that a name gives are not always drawn. Like-named read-outs stand apart in the source and are kept apart here.

Experiments:
[1] = cited from earlier work; for Toxicity: at the toxic dose range of the same line
[2] = system: MCF-7/adr cells; assay: Breast cancer clonogenic assay, MCF-7/adr; format: cell-based, Human; settings: for IC90: Homo sapiens, NCI/ADR-RES, absence of ketotifen, read-out: IC90 of cytotoxic drugs on MCF-7/adr, −ke
Description: MCF-7/adr cells were treated with different concentrations of reversal compounds with or without 2 μM doxorubicin for 24 hours. Cells were harvested, and plated for growth of breast cancer colonies in triplicates. […] DXN: doxorubicin.
FIG. 2 Influence of 10 μM of ketotifen on the toxicities of four cytotoxic drugs. MCF-7/adr cells were treated with different concentrations of chemotherapeutic agents in the presence or absence of 10 μM ketotifen for 24 hours. Cells were harvested, washed and plated for growth of breast cancer colonies as described in the Materials and Methods. […] Ke: ketotifen.
The toxicity of the cytotoxic drugs was measured by clonogenicity assay.
(§1) MCF-7/mx and MCF-7/vp cell lines were also used. Other cell lines could also be used. […] The MCF-7/vp cell line was selected with etoposide and overexpresses Multidrug Resistance-associated Protein gene (MRP). All the cell lines were grown routinely as monolayer culture in Dulbecco's Minimal Essential Media (DME) supplemented with L-glutamine (2 mM), penicillin, streptomycin and 10% heat-inactivated fetal bovine serum SUBS, GIBCO) in an atmosphere of 5% CO2 at 37° C. The cell lines were passaged weekly.
(§2) Both adherent and non-adherent cells were collected and washed with fresh medium. Cell aliquots (5×10^3) were plated in 1 ml of 0.3% agar over 1 ml of 0.5% agar underlayer prepared in IMDM containing 10% horse serum (GIBCO). The upper layer consisted of 20% FBS, 10 μg/ml of bovine insulin, 2.5 mg/ml of hydrocortisone, 5×10^−7M of 17-b-estradiol (Sigma) and 50 ng/ml of EGF (R & D Systems).

[3] = system: MCF-7/wt; assay: Breast cancer clonogenic assay, MCF-7/wt; format: cell-based; settings: Homo sapiens, MCF7, 24 hours treatment, clonogenicity, read-out: IC90 of cytotoxic drugs on MCF-7/wt
Description: (§3) The toxicity of the cytotoxic drugs was measured by clonogenicity assay. […] Beginning at 1 μM, ketotifen restored doxorubicin toxicity while at 10 μM, the MDR phenotype of MCF-7/adr cells was completely reversed. Over this concentration range, ketotifen itself is non-toxic to MCP-7/adr cells. […] As summarized in Table 3, IC90 levels on MCF-7/adr cells in the presence of ketotifen are almost identical to those for parental MCF-7 cells. […] Thus, ketotifen is a specific reversing agent for MDR associated with P-gp.
as §1, with “MCF-7 (MCF-7/wt) and its multidrug resistant variant MCF-7/adr cells were used. MCF-7/mx” for “MCF-7/mx”
as §2, with “Exponentially growing MCF-7/wt and its three mutants MCF-7/adr, MCF-7/mx and MCF-7/vp were trypsinized, washed with fresh medium and plated in 6-well plates at a density of 1×10^5/ml. […] Both” for “Both”, “Systems). Colonies larger than 50 μm in size were scored after 14 days of incubation at 37° C. in a humidified atmosphere of 5% CO2 in air.” for “Systems).”

[4] = system: MCF-7/adr cells; assay: Breast cancer clonogenic assay, MCF-7/adr; format: cell-based; settings: Homo sapiens, NCI/ADR-RES, presence of 10 mM of ketotifen (so in the source), read-out: IC90 of cytotoxic drugs on MCF-7/adr, +ke
[5] = Modulation of doxorubicin toxicity: survival; settings: doxorubicin 15 mg/kg i.p., alone or after labelled reversal agent 25 mg/kg i.p.
Text: Female Balb/c mice (8-10 weeks of age, 20-22 g of body weight) were purchased from Jackson Laboratory (Maine, USA). Protocols were approved by the Animal Care Committee of the University Health Network. […] All the treatments were administrated via i.p. After treatment, mice were kept in sterile environment for six to eight weeks. […] Three mice from each group were sacrificed on day 4-post treatment. Hearts were removed immediately and fixed in 10% neutral buffered formalin. Tissue sections were made from heart tissue and stained with hematoxylin and eosin or with 1% Toluidine blue to identify mast cells. All the slides were evaluated by light microscopy for cardiac damage, mast cell density and degranulation.
All the colony data were analyzed by two-way analysis of variance (ANOVA), with differences between individual means determined by Bonferroni's post-tests. Data were expressed as means ±SEM. The Kaplan-Meier estimate was used to determine differences in the survival periods for mice following different drug combination treatments.

[6] = system: MCF-7/mx; assay: Breast cancer clonogenic assay, MCF-7/mx (BCRP overexpressing); format: cell-based, Human
Description: (§4) FIG. 3 Ketotifen fails to reverse MDR of MCF-7/mx and MCF-7/vp cell lines. MCF-7/mx and MCF-7/vp cell lines were treated and assayed as described in FIGS. 1 and 2. […] Ke: ketotifen.
as §3
(§5) MCF-7 (MCF-7/wt) and its multidrug resistant variant MCF-7/adr cells were used. MCF-7/mx and MCF-7/vp cell lines were also used. Other cell lines could also be used. […] The MCF-7/vp cell line was selected with etoposide and overexpresses Multidrug Resistance-associated Protein gene (MRP). […]
(§6) Exponentially growing MCF-7/wt and its three mutants MCF-7/adr, MCF-7/mx and MCF-7/vp were trypsinized, washed with fresh medium and plated in 6-well plates at a density of 1×10^5/ml. […] Colonies larger than 50 μm in size were scored after 14 days of incubation at 37° C. in a humidified atmosphere of 5% CO2 in air.

[7] = system: MCF-7/vp cells; assay: Breast cancer clonogenic assay, MCF-7/vp (MRP overexpressing); format: cell-based, Human
Description: as §4, §3, §5, §6

[8] = system: P388/adr murine leukemia cells; assay: p388 multi-drug resistant leukemia model; format: in vivo, Mice; settings: ketotifen 75 mg/kg i.p. 30 minutes before doxorubicin 4 mg/kg i.p., once per week
[9] = target: P-gp (Homo sapiens, UniProt P08183); settings: 2.5 h, 2 μM
Chain of P-gp (P08183 whole entry): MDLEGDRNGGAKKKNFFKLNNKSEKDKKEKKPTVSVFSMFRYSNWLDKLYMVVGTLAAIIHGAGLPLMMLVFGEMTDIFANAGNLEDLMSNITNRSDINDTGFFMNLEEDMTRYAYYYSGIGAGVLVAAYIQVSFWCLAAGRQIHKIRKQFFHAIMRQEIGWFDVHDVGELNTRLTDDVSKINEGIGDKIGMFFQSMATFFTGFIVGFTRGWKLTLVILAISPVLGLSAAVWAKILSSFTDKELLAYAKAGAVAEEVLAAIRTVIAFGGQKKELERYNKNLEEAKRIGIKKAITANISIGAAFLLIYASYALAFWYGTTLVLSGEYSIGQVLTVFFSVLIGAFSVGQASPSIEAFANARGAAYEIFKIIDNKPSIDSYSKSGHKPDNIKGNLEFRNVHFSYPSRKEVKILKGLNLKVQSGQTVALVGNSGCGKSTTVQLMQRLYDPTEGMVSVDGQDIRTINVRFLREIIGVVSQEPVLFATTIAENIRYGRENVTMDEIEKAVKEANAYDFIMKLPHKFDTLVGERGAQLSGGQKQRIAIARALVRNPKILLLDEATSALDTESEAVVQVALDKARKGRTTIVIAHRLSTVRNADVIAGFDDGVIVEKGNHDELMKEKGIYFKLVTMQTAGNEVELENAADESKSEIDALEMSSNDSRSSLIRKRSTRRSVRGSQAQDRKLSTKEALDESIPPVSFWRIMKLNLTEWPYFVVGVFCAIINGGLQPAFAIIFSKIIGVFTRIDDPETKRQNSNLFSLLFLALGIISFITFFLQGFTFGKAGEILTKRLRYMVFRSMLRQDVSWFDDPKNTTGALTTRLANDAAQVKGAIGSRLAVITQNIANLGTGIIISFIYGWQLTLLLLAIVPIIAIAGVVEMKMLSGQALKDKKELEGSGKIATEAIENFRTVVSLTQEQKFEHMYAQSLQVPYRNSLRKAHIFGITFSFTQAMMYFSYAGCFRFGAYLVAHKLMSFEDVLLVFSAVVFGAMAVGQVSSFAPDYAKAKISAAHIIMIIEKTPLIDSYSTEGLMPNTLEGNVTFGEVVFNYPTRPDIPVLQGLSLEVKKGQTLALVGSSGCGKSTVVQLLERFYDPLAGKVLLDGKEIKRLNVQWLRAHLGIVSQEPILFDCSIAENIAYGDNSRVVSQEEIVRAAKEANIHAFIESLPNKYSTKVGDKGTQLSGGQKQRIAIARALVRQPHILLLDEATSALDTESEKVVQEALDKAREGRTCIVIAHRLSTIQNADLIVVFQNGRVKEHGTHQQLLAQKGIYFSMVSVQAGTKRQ

[10] = with 2 μM doxorubicin, 24 hours

## COc1cccc2c1C(=O)c1c(O)c3c(c(O)c1C2=O)C[C@@](O)(C(C)=O)C[C@@H]3O[C@H]1C[C@H](N)[C@H](O)[C@H](C)O1 [Daunorubicin]
[1]
  Toxicity: Same toxocity as doxorubicin
[1]; total dose, IV
  Toxic dose range: >550 mg/m^2

## CC[C@]1(O)C[C@@H]2CN(CCc3c([nH]c4ccccc34)[C@@](C(=O)OC)(c3cc4c(cc3OC)N(C)[C@H]3[C@@](O)(C(=O)OC)[C@H](OC(C)=O)[C@]5(CC)C=CCN6CC[C@]43[C@@H]65)C2)C1 [Vinblastine]
[2]
  IC90: 410000 nM
[3]
  IC90: 800 nM
[4]
  IC90: 1200 nM

## CC(=O)O[C@H]1C(=O)[C@@]2(C)[C@H]([C@H](OC(=O)c3ccccc3)[C@]3(O)C[C@H](OC(=O)[C@H](O)[C@@H](NC(=O)c4ccccc4)c4ccccc4)C(C)=C1C3(C)C)[C@]1(OC(C)=O)CO[C@@H]1C[C@@H]2O [Paclitaxel]
[1]
  Toxicity: Bradycardia

## O=P1(N(CCCl)CCCl)NCCCO1 (centres unmarked) [Cyclophosphamide]
[1]; over 2 d, IV
  Toxic dose range: >100 to 120 mg/kg

## COc1ccc(CCN(C)CCCC(C#N)(c2ccc(OC)c(OC)c2)C(C)C)cc1OC (centres unmarked) [verapamil]
[5]
  median survival time: 12.3 days
  survival rate at day 30: 0%

## CN1CCC(=C2c3ccccc3CC(=O)c3sccc32)CC1.O=C(O)/C=C/C(=O)O [ketotifen, 4-(1-Methyl-4-piperidylidene)-4H-benzo[4,5]cyclohepta[1,2-b] thiophen-10(9H)-one hydrogen fumarate]
[2]; 10 μM ketotifen
  sensitivity to mitoxantrone, VP-16 and vinblastine: restored
[2]; ketotifen compared with verapamil
  reversal of doxorubicin resistance: reverse resistance at similar concentrations
[2]; over 1 to 10 μM, without doxorubicin
  toxicity of ketotifen itself: non-toxic
[2]; [10]
  ketotifen concentration at which MDR phenotype was completely reversed: 10 µM
  ketotifen concentration from which doxorubicin toxicity is restored: ≥ 1 µM
[6]
  influence on toxicity of mitoxantrone: influenced neither
[7]
  influence on toxicity of VP-16: influenced neither
[5]
  median survival time: 23.2 days
  survival rate at day 30: 57%
[8]
  extension of survival compared to doxorubicin alone: 2 days
[9]
  increase of doxorubicin relative fluorescence: 50%

## CO[C@@]12[C@H](COC(N)=O)C3=C(C(=O)C(C)=C(N)C3=O)N1C[C@@H]1N[C@@H]12 [Mitomycin]
[1]; IV unless otherwise indicated
  Toxic dose range: Conventional dose

## COc1cc(NS(C)(=O)=O)ccc1Nc1c2ccccc2nc2ccccc12 [Amsacrine]
[1]
  Toxicity: Ventricular arrhythmia

## CC[C@]1(O)C[C@H]2CN(CCc3c([nH]c4ccccc34)[C@@](C(=O)OC)(c3cc4c(cc3OC)N(C=O)[C@H]3[C@@](O)(C(=O)OC)[C@H](OC(C)=O)[C@]5(CC)C=CCN6CC[C@]43[C@@H]65)C2)C1 [Vincristine]
[1]; IV unless otherwise indicated
  Toxic dose range: Conventional dose
[1]
  Toxicity: Myocardial Infarction

## O=c1[nH]cc(F)c(=O)[nH]1 [Fluorouracil]
[1]
  Toxicity: Angina/myocardial infarction

## O=C1c2c(O)ccc(O)c2C(=O)c2c(NCCNCCO)ccc(NCCNCCO)c21 [Mitoxantrone]
[2]
  IC90: 220 nM
[3]
  IC90: 10 nM
[4]
  IC90: 20 nM

## COc1cccc2c1C(=O)c1c(O)c3c(c(O)c1C2=O)C[C@@](O)(C(=O)CO)C[C@@H]3O[C@H]1C[C@H](N)[C@H](O)[C@H](C)O1 [Doxorubicin, 8S,10S)-10-[(3-amino-2,3,6-trideoxy-a-L-lyxo-hexopyranosyl)oxy]-8-glycolyl-7,8,9,10-tetrahydro-6,8,11-trihydroxy-1-methoxy-5,12-naphthacenedione hydrochloride]
[2]
  IC90: > 10000 nM
[3]
  IC90: 120 nM
[5]
  median survival time: 19.3 days
  survival rate at day 30: 42%
[4]
  IC90: 180 nM

## COc1cc([C@@H]2c3cc4c(cc3[C@@H](O[C@@H]3O[C@@H]5CO[C@@H](C)O[C@H]5[C@H](O)[C@H]3O)[C@H]3COC(=O)[C@H]23)OCO4)cc(OC)c1O [VP-16, etoposide]
[2]
  IC90: 220000 nM
[3]
  IC90: 17000 nM
[4]
  IC90: 20000 nM

## CS(=O)(=O)OCCCCOS(C)(=O)=O [Bisulfan]
[1]; IV unless otherwise indicated
  Toxic dose range: Oral daily dose
[1]
  Toxicity: Endocardial fibrosis
